Data taken from patent publication US20240182481A1 (Tango Therapeutics, Inc., priority 2021, published 2024).
Read-outs that look alike come from different tables or passages of the source.

Legend:
[1] = molecular target: USP1-UAF1 (Homo sapiens, UniProt O94782); assay: Ubiquitin Rhodamine assay for USP1-UAF1 activity; format: biochemical
Description: Certain compounds of the disclosure were assessed for USP1-UAF1 activity in a Ubiquitin Rhodamine assay as described in Example 135.

[2] = system: monoubiquitinated PCNA; assay: AlphaLISA assay measuring monoubiquitinated PCNA in MDA-MB-436; format: cell-based; conditions: Homo sapiens, read-out: Alpha LISA IC50
Excerpt: Table 1 also indicates IC50 values for exemplary compounds in an AlphaLISA assay measuring monoubiquitinated PCNA in a BRCA1 mutant cell line (MDA-MB-436; column 7).

[3] = system: HCC1954 (BRCA1 WT) cell line; assay: Viability assay in BRCA1 WT cell line HCC1954; format: cell-based; conditions: for IC50: Homo sapiens, read-out: HCC 1954 IC50 rel IC50
Excerpt: (§1) Table 1 also indicates IC50 values in a viability assay for a non-isogenic pair of BRCA1 mutant (column 5—MDA-MB-436) and BRCA1 WT (column 6—HCC1954) cell lines. These values indicate the effect of treatment with compound on cell survival.

[4] = system: MDA-MB-436 (BRCA1 mutant) cell line; assay: Viability assay in BRCA1 mutant cell line MDA-MB-436; format: cell-based; conditions: Homo sapiens, BRCA1 mutant MDA-MB-436, read-out: MDA-MB-436 rel IC50
Excerpt: as §1

USP1-UAF1, sequence (O94782 whole entry): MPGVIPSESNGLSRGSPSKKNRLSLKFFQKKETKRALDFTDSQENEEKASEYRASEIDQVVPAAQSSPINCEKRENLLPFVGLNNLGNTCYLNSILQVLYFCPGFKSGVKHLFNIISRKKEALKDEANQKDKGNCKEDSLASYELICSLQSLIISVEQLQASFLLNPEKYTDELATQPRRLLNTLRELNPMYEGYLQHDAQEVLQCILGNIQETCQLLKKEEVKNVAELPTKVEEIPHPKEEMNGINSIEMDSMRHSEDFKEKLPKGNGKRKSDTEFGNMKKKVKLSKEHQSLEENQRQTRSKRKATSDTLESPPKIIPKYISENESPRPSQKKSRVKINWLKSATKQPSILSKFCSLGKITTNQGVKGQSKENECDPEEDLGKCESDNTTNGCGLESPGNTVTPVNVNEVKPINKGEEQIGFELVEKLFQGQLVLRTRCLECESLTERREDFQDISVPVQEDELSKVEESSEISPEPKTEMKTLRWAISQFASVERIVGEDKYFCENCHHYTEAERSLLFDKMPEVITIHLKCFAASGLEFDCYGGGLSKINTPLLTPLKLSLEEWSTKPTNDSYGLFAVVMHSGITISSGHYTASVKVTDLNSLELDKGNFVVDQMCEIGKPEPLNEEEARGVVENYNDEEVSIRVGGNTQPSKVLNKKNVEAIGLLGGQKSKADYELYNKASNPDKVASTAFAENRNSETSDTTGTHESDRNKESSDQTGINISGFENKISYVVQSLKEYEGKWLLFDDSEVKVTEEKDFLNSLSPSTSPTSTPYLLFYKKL
USP1-UAF1, sequence (Q8TAF3 whole entry partner): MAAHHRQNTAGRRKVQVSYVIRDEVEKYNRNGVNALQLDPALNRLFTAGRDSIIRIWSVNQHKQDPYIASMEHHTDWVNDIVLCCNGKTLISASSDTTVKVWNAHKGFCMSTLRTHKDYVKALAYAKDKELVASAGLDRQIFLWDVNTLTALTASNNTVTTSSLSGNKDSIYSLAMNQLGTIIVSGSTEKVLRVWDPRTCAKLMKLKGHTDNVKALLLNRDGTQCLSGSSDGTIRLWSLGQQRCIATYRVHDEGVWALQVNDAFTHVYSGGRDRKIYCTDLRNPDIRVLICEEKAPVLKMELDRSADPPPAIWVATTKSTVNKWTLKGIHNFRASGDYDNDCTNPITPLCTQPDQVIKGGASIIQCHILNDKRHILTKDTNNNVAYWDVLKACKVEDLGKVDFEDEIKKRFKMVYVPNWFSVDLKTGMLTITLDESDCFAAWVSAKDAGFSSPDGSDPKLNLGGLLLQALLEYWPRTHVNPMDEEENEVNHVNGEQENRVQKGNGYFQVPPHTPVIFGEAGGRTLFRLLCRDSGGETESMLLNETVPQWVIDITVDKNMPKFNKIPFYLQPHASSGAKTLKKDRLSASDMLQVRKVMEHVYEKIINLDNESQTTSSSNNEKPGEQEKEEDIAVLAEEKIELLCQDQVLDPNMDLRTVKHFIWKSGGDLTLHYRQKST

Compound | IC50 [1] [nM] | IC50 [2] [nM] | IC50 [3] [µM] | IC50 ([4]; MDA-MB-436, viability) [nM] | HCC 1954 IC50 rel IC50 [3] | IC50 ([4]; viability) [nM]
COc1ncnc(C2CC2)c1-c1ncc2[nH]nc(Cc3ccc(-c4nc(C(F)(F)F)cn4C)c(F)c3)c2n1 [Compound 90, 5-(4-cyclopropyl-6-methoxypyrimidin-5-yl)-3-(3-fluoro-4-(1-methyl-4-(trifluoromethyl)-1H-imidazol-2-yl)benzyl)-1H-pyrazolo[4,3-d]pyrimidine] | < 30 | < 100 | ≥ 10 | < 100 | – | –
CC(C)n1cc(C(F)(F)F)nc1-c1ccc(C(O)c2c[nH]c3cnc(-c4c(OC(F)F)ncnc4C4CC4)nc23)cc1 (centres unmarked) [Compound 92] | 30 to 100 | < 100 | – | < 100 | dd | –
COc1ncnc(C2CC2)c1-c1ncc2c(n1)c(Cc1ccc(-c3nc(C(F)(F)F)cn3C)cc1)cn2C(C)=O [Compound 93, 1-[2-(4-cyclopropyl-6-methoxy-pyrimidin-5-yl)-7-[[4-[1-methyl-4-(trifluoromethyl)imidazol-2-yl]phenyl]methyl]pyrrolo[3,2-d]pyrimidin-5-yl]ethanone] | 30 to 100 | < 100 | ≥ 10 | – | – | < 100
COc1ncnc(C2CC2)c1-c1ncc2[nH]nc(Cc3ccc(-c4nc(C(F)(F)F)cn4C)c(C)c3)c2n1 [Compound 95, 5-(4-cyclopropyl-6-methoxy-pyrimidin-5-yl)-3-[[3-methyl-4-[1-methyl-4-(trifluoromethyl)imidazol-2-yl]phenyl]methyl]-1H-pyrazolo[4,3-d]pyrimidine] | < 30 | < 100 | ≥ 10 | < 100 | – | –
COc1ncnc(C(C)(C)C)c1-c1ncc2c(n1)c(Cc1ccc(-c3nc(C(F)(F)F)cn3C)cc1)nn2C [Compound 96] | 30 to 100 | 100 to 250 | ≥ 10 | 100 to 250 | – | –
[2H]C([2H])([2H])n1cc(C(F)(F)F)nc1-c1ccc(Cc2n[nH]c3cnc(-c4c(OC)ncnc4C4CC4)nc23)cc1 [Compound 97, 5-(4-cyclopropyl-6-methoxy-pyrimidin-5-yl)-3-[[4-[1-(trideuteriomethyl)-4-(trifluoromethyl)imidazol-2-yl]phenyl]methyl]-1H-pyrazolo[4,3-d]pyrimidine] | < 30 | < 100 | ≥ 10 | < 100 | – | –
COc1ncnc(C2CC2)c1-c1ncc2nn(C(C)=O)c(Cc3ccc(-c4nc(C(F)(F)F)cn4C)cc3)c2n1 [Compound 101, 1-(5-(4-cyclopropyl-6-methoxypyrimidin-5-yl)-3-(4-(1-methyl-4-(trifluoromethyl)-1H-imidazol-2-yl)benzyl)-2H-pyrazolo[4,3-d]pyrimidin-2-yl)ethan-1-one] | 30 to 100 | < 100 | ≥ 10 | – | – | < 100
CC(C)Oc1ncnc(C2CC2)c1-c1ncc2[nH]nc(Cc3ccc(-c4nc(C(F)(F)F)cn4C)cc3)c2n1 [Compound 102] | < 30 | 100 to 250 | ≥ 10 | 100 to 250 | – | –
CCn1cc(C(F)(F)F)nc1-c1ccc(Cc2nn(C)c3cnc(-c4c(OC)ncnc4C4CC4)nc23)cc1 [Compound 106, 5-(4-cyclopropyl-6-methoxypyrimidin-5-yl)-3-(4-(1-ethyl-4-(trifluoromethyl)-1H-imidazol-2-yl)benzyl)-1-methyl-1H-pyrazolo[4,3-d]pyrimidine] | < 30 | < 100 | ≥ 10 | < 100 | – | –
COc1ncnc(C2CC2)c1-c1ncc2c(n1)c(Cc1ccc(-n3nc(C#N)cc3C)cc1)cn2C [Compound 107, 1-[4-[[2-(4-cyclopropyl-6-methoxy-pyrimidin-5-yl)-5-methyl-pyrrolo[3,2-d]pyrimidin-7-yl]methyl]phenyl]-5-methyl-pyrazole-3-carbonitrile] | 30 to 100 | < 100 | ≥ 10 | < 100 | – | –
COc1ncnc(C2CC2)c1-c1nc(C(F)(F)F)c2[nH]nc(Cc3ccc(-c4nc(C(F)(F)F)cn4C)cc3)c2n1 [Compound 114, 5-(4-cyclopropyl-6-methoxy-pyrimidin-5-yl)-3-[[4-[1-methyl-4-(trifluoromethyl)imidazol-2-yl]phenyl]methyl]-7-(trifluoromethyl)-1H-pyrazolo[4,3-d]pyrimidine] | < 30 | < 100 | ≥ 10 | < 100 | – | –
COc1ncnc(C2CC2)c1-c1nc(C)c2[nH]nc(Cc3ccc(-c4nc(C(F)(F)F)cn4C)cc3)c2n1 [Compound 115, 5-(4-cyclopropyl-6-methoxypyrimidin-5-yl)-7-methyl-3-(4-(1-methyl-4-(trifluoromethyl)-1H-imidazol-2-yl)benzyl)-1H-pyrazolo[4,3-d]pyrimidine] | < 30 | < 100 | ≥ 10 | < 100 | – | –
COc1ccnc(C2CC2)c1-c1ncc2[nH]nc(Cc3ccc(-c4nc(C(F)(F)F)cn4C)cc3)c2n1 [Compound 116] | < 30 | 100 to 250 | ≥ 10 | < 100 | – | –
COc1ncnc(C2CC2)c1-c1ncc2[nH]c(CN)c(Cc3ccc(-c4nc(C(F)(F)F)cn4C)cc3)c2n1 [Compound 119] | 100 to 10000 | 250 to 10000 | 0.25 to 10 | 100 to 250 | – | –
COc1ncnc(C2CC2)c1-c1nc(C(F)(F)F)c2[nH]cc(Cc3ccc(-c4nc(C(F)(F)F)cn4C)cc3)c2n1 [Compound 121, 2-(4-cyclopropyl-6-methoxy-pyrimidin-5-yl)-7-[[4-[1-methyl-4-(trifluoromethyl)imidazol-2-yl]phenyl]methyl]-4-(trifluoromethyl)-5H-pyrrolo[3,2-d]pyrimidine] | < 30 | < 100 | ≥ 10 | < 100 | – | –
Cn1cc(C(F)(F)F)nc1-c1ccc(Cc2c[nH]c3cnc(-c4c(C5CC5)ccnc4C4CC4)nc23)cc1 [Compound 122] | < 30 | 250 to 10000 | ≥ 10 | 100 to 250 | – | –
CCOc1cc(C(F)(F)F)nn1-c1ccc(Cc2n[nH]c3cnc(-c4c(OC)ncnc4C4CC4)nc23)cc1 [Compound 123, 5-(4-cyclopropyl-6-methoxy-pyrimidin-5-yl)-3-[[4-[5-ethoxy-3-(trifluoromethyl)pyrazol-1-yl]phenyl]methyl]-1H-pyrazolo[4,3-d]pyrimidine] | < 30 | < 100 | 0.25 to 10 | < 100 | – | –

Further lines, with some results ahead:

IC50 [1] [nM] | IC50 [2] [nM] | IC50 [3] [µM] | IC50 ([4]; MDA-MB-436, viability) [nM] | HCC 1954 IC50 rel IC50 [3] | Compound | IC50 ([4]; viability) [nM]
100 to 10000 | 100 to 250 | ≥ 10 | 100 to 250 | – | COc1ncnc(C2CC2)c1-c1ncc2c(n1)c(Cc1ccc(-c3nc(C(F)(F)F)cn3C)cc1)cn2C(C)C [Compound 91] | –
< 30 | < 100 | ≥ 10 | < 100 | – | COCc1[nH]c2cnc(-c3c(OC)ncnc3C3CC3)nc2c1Cc1ccc(-c2nc(C(F)(F)F)cn2C)cc1 [Compound 94, 2-(4-cyclopropyl-6-methoxy-pyrimidin-5-yl)-6-(methoxymethyl)-7-[[4-[1-methyl-4-(trifluoromethyl)imidazol-2-yl]phenyl]methyl]-5H-pyrrolo[3,2-d]pyrimidine] | –
30 to 100 | < 100 | ≥ 10 | 100 to 250 | – | COc1ncnc(OC)c1-c1ncc2[nH]cc(Cc3ccc(-c4nc(C(F)(F)F)cn4C)cc3)c2n1 [Compound 100] | –
< 30 | < 100 | ≥ 10 | < 100 | – | COc1ncnc(C(C)C)c1-c1ncc2[nH]cc(Cc3ccc(-c4nc(C(F)(F)F)cn4C)cc3)c2n1 [Compound 105, 2-(4-isopropyl-6-methoxy-pyrimidin-5-yl)-7-[[4-[1-methyl-4-(trifluoromethyl)imidazol-2-yl]phenyl]methyl]-5H-pyrrolo[3,2-d]pyrimidine] | –
< 30 | 250 to 10000 | ≥ 10 | 100 to 250 | – | COc1ncnc(C2CC2)c1-c1nc(F)c2[nH]cc(Cc3ccc(-c4nc(C(F)(F)F)cn4C)cc3)c2n1 [Compound 110] | –
30 to 100 | < 100 | ≥ 10 | < 100 | – | CCOc1ncnc(C2CC2)c1-c1ncc2[nH]cc(Cc3ccc(-c4nc(C(F)(F)F)cn4C)cc3)c2n1 [Compound 111, 2-(4-cyclopropyl-6-ethoxy-pyrimidin-5-yl)-7-[[4-[1-methyl-4-(trifluoromethyl)imidazol-2-yl]phenyl]methyl]-5H-pyrrolo[3,2-d]pyrimidine] | –
< 30 | < 100 | ≥ 10 | < 100 | – | COc1ncnc(C2CC2)c1-c1ncc2[nH]cc(Cc3ccc(-c4nc(C(F)(F)F)cn4C)c(C)c3)c2n1 [Compound 113] | –
< 30 | < 100 | ≥ 10 | < 100 | – | CC(C)Oc1ncnc(C2CC2)c1-c1ncc2[nH]cc(Cc3ccc(-c4nc(C(F)(F)F)cn4C)cc3)c2n1 [Compound 118, 2-(4-cyclopropyl-6-isopropoxy-pyrimidin-5-yl)-7-[[4-[1-methyl-4-(trifluoromethyl)imidazol-2-yl]phenyl]methyl]-5H-pyrrolo[3,2-d]pyrimidine] | –
< 30 | < 100 | ≥ 10 | < 100 | – | COc1ncnc(C2CC2)c1-c1ncc2[nH]cc(Cc3ccc(-c4nc(C(F)(F)F)cn4C)cc3F)c2n1 [Compound 120, 2-(4-cyclopropyl-6-methoxy-pyrimidin-5-yl)-7-[[2-fluoro-4-[1-methyl-4-(trifluoromethyl)imidazol-2-yl]phenyl]methyl]-5H-pyrrolo[3,2-d]pyrimidine] | –
